Reference: PubChem BioAssay (NCI)
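Results reflect a 48-hour exposure of cells in 96-well plates to compound at five concentrations. At the TGI there is no net growth.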

Assays:
Experiment in all cases: DTP human tumour cell line panel, 48 h
BT-549 breast = tested on: BT-549 breast
CAKI-1 renal = tested on: CAKI-1 renal
DLD-1 colon = tested on: DLD-1 colon
EKVX NSCLC = tested on: EKVX NSCLC
HL-60(TB) leukemia = tested on: HL-60(TB) leukemia
HOP-62 NSCLC = tested on: HOP-62 NSCLC
HT29 colon = tested on: HT29 colon
IGROV1 ovarian = tested on: IGROV1 ovarian
MALME-3M melanoma = tested on: MALME-3M melanoma
MCF7 breast = tested on: MCF7 breast
MDA-N = tested on: MDA-N
NCI-H226 lung = tested on: NCI-H226 lung
NCI-H23 lung = tested on: NCI-H23 lung
NCI-H460 lung = tested on: NCI-H460 lung
OVCAR-3 ovarian = tested on: OVCAR-3 ovarian
OVCAR-8 ovarian = tested on: OVCAR-8 ovarian
PC-3 prostate = tested on: PC-3 prostate
SK-MEL-2 melanoma = tested on: SK-MEL-2 melanoma
SK-MEL-28 melanoma = tested on: SK-MEL-28 melanoma
UACC-62 melanoma = tested on: UACC-62 melanoma

SMILES | TGI (BT-549 breast) | TGI (CAKI-1 renal) | TGI (DLD-1 colon) | TGI (EKVX NSCLC) | TGI (HL-60(TB) leukemia) | TGI (HOP-62 NSCLC) | TGI (HT29 colon) | TGI (IGROV1 ovarian) | TGI (MALME-3M melanoma) | TGI (MCF7 breast) | TGI (MDA-N) | TGI (NCI-H226 lung) | TGI (NCI-H23 lung) | TGI (NCI-H460 lung) | TGI (OVCAR-3 ovarian) | TGI (OVCAR-8 ovarian) | TGI (PC-3 prostate) | TGI (SK-MEL-2 melanoma) | TGI (SK-MEL-28 melanoma) | TGI (UACC-62 melanoma)
O=C1C=CC(=O)c2c1ccc1c3ccccc3n(-c3ccccc3)c21 | 27 µM | 19.6 µM | 6.99 µM | 28.7 µM | 2.34 µM | 37.7 µM | 37 µM | 34.5 µM | 16.8 µM | > 100 µM | 18.3 µM | 40 µM | 34.1 µM | 34.6 µM | 21.9 µM | 11 µM | 27 µM | 26.6 µM | 14.4 µM | 26.2 µM
CCOC(=O)C(C(=O)OCC)c1ccc([N+](=O)[O-])o1 | – | 16.1 µM | 18.6 µM | 35.4 µM | > 22.3 µM | > 75.5 µM | 31.2 µM | 42.1 µM | 17.6 µM | – | – | 45.7 µM | 32.3 µM | 44.9 µM | 15.8 µM | 16.1 µM | – | 34.1 µM | 27.1 µM | 35.9 µM
